US12662465B2, “EGFR inhibitors” (Blueprint Medicines Corporation, priority 2021, dated 2026)
Read-outs that look alike come from different tables or passages of the source.

Tests used:
[1] = target: intracellular phosphorylation of EGFR (Tyr1068) in PC-9 cells (Ex19Del) (Homo sapiens, UniProt P00533, DEL746-750); assay: PC-9 pEGFR AlphaLISA assay; format: cell-based; details: 4 hours compound incubation, read-out: Ext pEGFR_PC-9 Ex19Del IC50
EGFR (d746-750) = target: T1, EGFR (d746-750) (Homo sapiens, UniProt P00533, DEL746-750); assay: Biochemical EGFR inhibition assay (Caliper mobility shift), EGFR (d746-750); details: read-out: Enz EGFR_Exon19-del746-750 IC50
T1 construct: purchased SignalChem E10-122JG

EGFR L858R = target: T2, EGFR L858R (Homo sapiens, UniProt P00533, L858R); assay: Biochemical EGFR inhibition assay (Caliper mobility shift), EGFR L858R; details: read-out: Enz EGFR_L858R IC50
T2 construct: purchased SignalChem E10-122BG

[2] = 1.0 mM ATP or ATP Km, room temperature (25° C.)

T2 sequence (P00533 25-1210 L858R): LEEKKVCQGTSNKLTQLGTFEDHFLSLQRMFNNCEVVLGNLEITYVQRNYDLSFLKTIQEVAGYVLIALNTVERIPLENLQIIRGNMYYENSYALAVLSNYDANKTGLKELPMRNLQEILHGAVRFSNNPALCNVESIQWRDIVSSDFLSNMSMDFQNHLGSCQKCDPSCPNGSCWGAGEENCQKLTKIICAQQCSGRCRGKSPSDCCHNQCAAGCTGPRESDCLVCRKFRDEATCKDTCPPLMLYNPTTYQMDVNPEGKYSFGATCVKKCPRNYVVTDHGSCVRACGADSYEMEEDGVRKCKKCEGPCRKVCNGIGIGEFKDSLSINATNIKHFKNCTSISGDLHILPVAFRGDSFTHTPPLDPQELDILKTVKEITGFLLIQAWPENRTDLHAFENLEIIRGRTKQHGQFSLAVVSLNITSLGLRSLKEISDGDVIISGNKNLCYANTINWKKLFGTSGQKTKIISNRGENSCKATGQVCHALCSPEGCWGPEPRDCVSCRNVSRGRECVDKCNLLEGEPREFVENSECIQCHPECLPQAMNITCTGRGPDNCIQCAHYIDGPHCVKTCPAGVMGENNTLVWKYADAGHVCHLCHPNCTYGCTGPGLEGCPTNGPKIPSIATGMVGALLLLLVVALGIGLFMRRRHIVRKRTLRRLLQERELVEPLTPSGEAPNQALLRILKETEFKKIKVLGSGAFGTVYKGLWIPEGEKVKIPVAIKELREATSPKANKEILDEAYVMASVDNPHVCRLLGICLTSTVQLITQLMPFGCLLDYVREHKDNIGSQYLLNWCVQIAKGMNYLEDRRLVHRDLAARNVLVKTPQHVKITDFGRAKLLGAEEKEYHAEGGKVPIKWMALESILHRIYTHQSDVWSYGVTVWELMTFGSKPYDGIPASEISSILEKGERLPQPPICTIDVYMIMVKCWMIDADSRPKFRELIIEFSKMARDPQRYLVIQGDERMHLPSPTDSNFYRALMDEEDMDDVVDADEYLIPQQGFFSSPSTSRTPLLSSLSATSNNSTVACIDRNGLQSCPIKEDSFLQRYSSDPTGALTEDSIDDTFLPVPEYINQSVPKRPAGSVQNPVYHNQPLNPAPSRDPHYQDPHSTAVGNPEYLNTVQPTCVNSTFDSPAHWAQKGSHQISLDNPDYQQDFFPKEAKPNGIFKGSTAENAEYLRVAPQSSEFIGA
T1 sequence (P00533 with tags, fused parts or gaps DEL746-750 limits assumed): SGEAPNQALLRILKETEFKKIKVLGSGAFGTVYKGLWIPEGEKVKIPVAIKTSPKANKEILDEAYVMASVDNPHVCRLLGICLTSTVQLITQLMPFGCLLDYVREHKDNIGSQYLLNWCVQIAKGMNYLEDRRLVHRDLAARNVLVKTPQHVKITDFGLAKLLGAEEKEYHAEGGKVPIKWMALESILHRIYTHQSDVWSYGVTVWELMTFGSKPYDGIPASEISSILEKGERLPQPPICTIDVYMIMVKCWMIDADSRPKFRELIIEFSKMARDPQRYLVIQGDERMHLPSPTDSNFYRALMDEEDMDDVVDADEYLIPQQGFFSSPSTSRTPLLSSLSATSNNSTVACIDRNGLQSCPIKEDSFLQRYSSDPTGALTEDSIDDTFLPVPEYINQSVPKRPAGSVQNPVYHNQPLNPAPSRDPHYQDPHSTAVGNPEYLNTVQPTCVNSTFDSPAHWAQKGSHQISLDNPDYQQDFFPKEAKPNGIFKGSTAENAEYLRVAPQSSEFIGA
intracellular phosphorylation of EGFR (Tyr1068) in PC-9 cells (Ex19Del), sequence (P00533 with tags, fused parts or gaps DEL746-750): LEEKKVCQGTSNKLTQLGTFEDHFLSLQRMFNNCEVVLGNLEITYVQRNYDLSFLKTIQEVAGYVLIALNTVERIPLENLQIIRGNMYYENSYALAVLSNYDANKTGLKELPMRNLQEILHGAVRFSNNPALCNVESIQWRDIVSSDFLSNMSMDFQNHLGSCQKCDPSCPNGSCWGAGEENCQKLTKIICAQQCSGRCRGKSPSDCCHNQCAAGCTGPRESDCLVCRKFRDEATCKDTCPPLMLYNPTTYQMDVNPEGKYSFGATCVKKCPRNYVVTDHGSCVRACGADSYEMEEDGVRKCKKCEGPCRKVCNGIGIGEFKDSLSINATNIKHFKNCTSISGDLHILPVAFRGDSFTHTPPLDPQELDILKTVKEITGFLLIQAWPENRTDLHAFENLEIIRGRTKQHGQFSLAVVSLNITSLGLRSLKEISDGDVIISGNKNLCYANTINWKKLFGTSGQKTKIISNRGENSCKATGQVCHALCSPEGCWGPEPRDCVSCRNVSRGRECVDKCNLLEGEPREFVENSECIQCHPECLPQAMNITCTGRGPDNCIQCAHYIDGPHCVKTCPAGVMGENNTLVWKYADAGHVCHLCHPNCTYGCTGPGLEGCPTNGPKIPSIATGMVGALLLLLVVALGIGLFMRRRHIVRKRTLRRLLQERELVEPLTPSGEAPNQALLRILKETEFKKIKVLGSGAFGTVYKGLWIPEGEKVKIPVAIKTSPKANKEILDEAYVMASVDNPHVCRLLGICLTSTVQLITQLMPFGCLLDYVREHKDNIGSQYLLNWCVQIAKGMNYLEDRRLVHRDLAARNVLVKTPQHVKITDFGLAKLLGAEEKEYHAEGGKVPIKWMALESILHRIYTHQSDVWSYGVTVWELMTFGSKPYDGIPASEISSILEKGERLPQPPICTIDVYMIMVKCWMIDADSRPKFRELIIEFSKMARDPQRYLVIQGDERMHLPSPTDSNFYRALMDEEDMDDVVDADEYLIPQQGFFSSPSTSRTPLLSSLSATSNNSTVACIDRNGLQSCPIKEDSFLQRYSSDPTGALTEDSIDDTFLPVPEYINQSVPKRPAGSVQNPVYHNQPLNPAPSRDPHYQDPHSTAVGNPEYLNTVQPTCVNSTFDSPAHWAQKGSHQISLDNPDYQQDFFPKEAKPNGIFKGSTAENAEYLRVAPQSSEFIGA

| IC50 [1] | IC50 (EGFR (d746-750)) | IC50 (EGFR L858R) | IC50 (EGFR (d746-750); [2]) | IC50 (EGFR L858R; [2]) | SMILES |
| --- | --- | --- | --- | --- | --- |
| 0.0101 to 0.05 µM | < 0.01 µM | < 0.01 µM |  |  | CN1CC[C@H](Oc2cc(-c3cnn(C)c3)cc3ncnc(Nc4ccc5ncccc5c4F)c23)C1=O [Example 25, (S)-3-((4-((5-fluoroquinolin-6-yl)amino)-7-(1-methyl-1H-pyrazol-4-yl)quinazolin-5-yl)oxy)-1-methylpyrrolidin-2-one] |
| > 0.0501 µM | < 0.01 µM | 0.0101 to 0.05 µM |  |  | CN(C)CC1(COc2cc(-c3cnn(C)c3)cc3ncnc(Nc4ccc5ncccc5c4F)c23)COC1 [Example 12, 5-((3-((dimethylamino)methyl)oxetan-3-yl)methoxy)-N-(5-fluoroquinolin-6-yl)-7-(1-methyl-1H-pyrazol-4-yl) quinazolin-4-amine] |
| ≤ 0.01 µM | < 0.01 µM | < 0.01 µM |  |  | C[C@@H](Oc1cc(-c2cnn(CCO)c2)cc2ncnc(Nc3ccc4ncccc4c3F)c12)C1COC1 [Example 51, (R)-2-(4-(4-((5-fluoroquinolin-6-yl)amino)-5-(1-(oxetan-3-yl)ethoxy)quinazolin-7-yl)-1H-pyrazol-1-yl)ethan-1-ol] |
| > 0.0501 µM | < 0.01 µM | < 0.01 µM |  |  | C[C@H](CN(C)C)Oc1cc(-c2cnn(C)c2)cc2ncnc(Nc3cnc4ccccc4c3F)c12 [Example 110, (R)-5-((1-(dimethylamino)propan-2-yl)oxy)-N-(4-fluoroquinolin-3-yl)-7-(1-methyl-1H-pyrazol-4-yl)quinazolin-4-amine] |
| ≤ 0.01 µM | < 0.01 µM | < 0.01 µM |  |  | COCCn1cc(-c2cc(O[C@H](C)C3COC3)c3c(Nc4ccc5ncccc5c4F)ncnc3c2)cn1 [Example 52, (R)—N-(5-fluoroquinolin-6-yl)-7-(1-(2-methoxyethyl)-1H-pyrazol-4-yl)-5-(1-(oxetan-3-yl)ethoxy)quinazolin-4-amine] |
| ≤ 0.01 µM | < 0.01 µM | < 0.01 µM |  |  | CC[C@H](CN(C)C)Oc1cc(-c2cnn(C)c2)cc2ncnc(Nc3ccc4ncccc4c3F)c12 [Example 24, (R)-5-((1-(dimethylamino)butan-2-yl)oxy)-N-(5-fluoroquinolin-6-yl)-7-(1-methyl-1H-pyrazol-4-yl)quinazolin-4-amine] |
| 0.0101 to 0.05 µM | < 0.01 µM | 0.0101 to 0.05 µM |  |  | Cc1ccc2cc(Nc3ncnc4cc(-c5cnn(C)c5)cc(O[C@H](C)CN(C)C)c34)ccc2n1 [Example 105, (R)-5-((1-(dimethylamino)propan-2-yl)oxy)-7-(1-methyl-1H-pyrazol-4-yl)-N-(2-methylquinolin-6-yl)quinazolin-4-amine] |
| ≤ 0.01 µM | < 0.01 µM | < 0.01 µM |  |  | C[C@H](CO)Oc1cc(-c2cnn(C)c2)cc2ncnc(Nc3ccc4ncccc4c3F)c12 [Example 135, (R)-2-((4-((5-fluoroquinolin-6-yl)amino)-7-(1-methyl-1H-pyrazol-4-yl)quinazolin-5-yl)oxy)propan-1-ol] |
| ≤ 0.01 µM |  |  | < 0.01 µM | < 0.01 µM | C[C@H](Oc1cc(-c2cnn(C)c2)cc2ncnc(Nc3ccc4ncccc4c3F)c12)C(=O)N(C)C (single isomer, unassigned) [Example 137, (S)-2-((4-((5-fluoroquinolin-6-yl)amino)-7-(1-methyl-1H-pyrazol-4-yl)quinazolin-5-yl)oxy)-N,N-dimethylpropanamide or (R)-2-((4-((5-fluoroquinolin-6-yl)amino)-7-(1-methyl-1H-pyrazol-4-yl)quinazolin-5-yl)oxy)-N,N-dimethylpropanamide] |

Further lines, the compound ahead of its results:

| SMILES | IC50 [1] | IC50 (EGFR (d746-750)) | IC50 (EGFR L858R) | IC50 (EGFR (d746-750); [2]) | IC50 (EGFR L858R; [2]) |
| --- | --- | --- | --- | --- | --- |
| C[C@@H](Oc1cc(N2CC[C@@H](N(C)C)C2)cc2ncnc(Nc3ccc4ncccc4c3F)c12)C1COC1 [Example 79, 7—((R)-3-(dimethylamino)pyrrolidin-1-yl)-N-(5-fluoroquinolin-6-yl)-5-((R)-1-(oxetan-3-yl)ethoxy)quinazolin-4-amine] | ≤ 0.01 µM | < 0.01 µM | < 0.01 µM |  |  |
| C[C@@H](Oc1cc(-c2cnn(C)c2)cc2ncnc(Nc3ccc4ncccc4c3F)c12)[C@@H]1COCCN1 (single isomer, unassigned) [Example 124] | 0.0101 to 0.05 µM |  |  | < 0.01 µM | < 0.01 µM |
| C[C@@H](Oc1cc(-c2cnn(C)c2)cc2ncnc(Nc3c(F)cc4ncccc4c3F)c12)C1COC1 [Example 8, (R)—N-(5,7-difluoroquinolin-6-yl)-7-(1-methyl-1H-pyrazol-4-yl)-5-(1-(oxetan-3-yl)ethoxy)quinazolin-4-amine] | ≤ 0.01 µM | < 0.01 µM | < 0.01 µM |  |  |
| C[C@H](CN(C)C)Oc1cc(-c2cnn(C)c2)cc2ncnc(Nc3ccc4cccnc4c3F)c12 [Example 108, (R)-5-((1-(dimethylamino)propan-2-yl)oxy)-N-(8-fluoroquinolin-7-yl)-7-(1-methyl-1H-pyrazol-4-yl)quinazolin-4-amine] | 0.0101 to 0.05 µM | < 0.01 µM | 0.0101 to 0.05 µM |  |  |
| CCOc1cc2ncnc(Nc3ccc4ncccc4c3F)c2c(O[C@H](C)CN(C)C)n1 [Example 58, (R)-5-((1-(dimethylamino)propan-2-yl)oxy)-7-ethoxy-N-(5-fluoroquinolin-6-yl)pyrido[4,3-d]pyrimidin-4-amine] | > 0.0501 µM | 0.0101 to 0.05 µM | > 0.0501 µM |  |  |
| C[C@H](CN(C)C)Oc1cc(-c2cnn(C)c2)cc2ncnc(Nc3cc(O)c4ncccc4c3F)c12 [Example 122, (R)-6-((5-((1-(dimethylamino)propan-2-yl)oxy)-7-(1-methyl-1H-pyrazol-4-yl)quinazolin-4-yl)amino)-5-fluoroquinolin-8-ol] | ≤ 0.01 µM | < 0.01 µM | < 0.01 µM |  |  |
| CN(C)[C@@H]1CC[C@H]1Oc1cc(-c2cnn(C)c2)cc2ncnc(Nc3ccc4ncccc4c3F)c12 (single isomer, unassigned) [Example 141, 5-((1R,2R)-2-(dimethylamino)cyclobutoxy)-N-(5-fluoroquinolin-6-yl)-7-(1-methyl-1H-pyrazol-4-yl)quinazolin-4-amine or 5-((1S,2S)-2-(dimethylamino)cyclobutoxy)-N-(5-fluoroquinolin-6-yl)-7-(1-methyl-1H-pyrazol-4-yl)quinazolin-4-amine] | > 0.0501 µM |  |  | 0.0101 to 0.05 µM | 0.0101 to 0.05 µM |
| CC(CN(C)C)Oc1cc(N2CC3CC(C2)O3)cc2ncnc(Nc3ccc4ncccc4c3)c12 (racemic) [Example 66, 7-(6-oxa-3-azabicyclo[3.1.1]heptan-3-yl)-5-(((R)-1-(dimethylamino)propan-2-yl)oxy)-N-(quinolin-6-yl)quinazolin-4-amine and 7-(6-oxa-3-azabicyclo[3.1.1]heptan-3-yl)-5-(((S)-1-(dimethylamino)propan-2-yl)oxy)-N-(quinolin-6-yl)quinazolin-4-amine] | ≤ 0.01 µM | < 0.01 µM | 0.0101 to 0.05 µM |  |  |
| C[C@H](CN(C)C)Oc1cc(N2CC3CCC(C2)O3)cc2ncnc(Nc3ccc4ncccc4c3F)c12 [Example 69, 7-(8-oxa-3-azabicyclo[3.2.1]octan-3-yl)-5-(((R)-1-(dimethylamino)propan-2-yl)oxy)-N-(5-fluoroquinolin-6-yl)quinazolin-4-amine] | > 0.0501 µM | 0.0101 to 0.05 µM | > 0.0501 µM |  |  |
| CC(Oc1cc(-c2cnn(C)c2)cc2ncnc(Nc3ccc4ncccc4c3F)c12)C1(N(C)C)COC1 (stereo not drawn) [Example 142, 5-(1-(3-(dimethylamino)oxetan-3-yl)ethoxy)-N-(5-fluoroquinolin-6-yl)-7-(1-methyl-1H-pyrazol-4-yl)quinazolin-4-amine] | ≤ 0.01 µM | < 0.01 µM | < 0.01 µM |  |  |
| CC(CO)n1cc(-c2cc(O[C@H](C)C3COC3)c3c(Nc4ccc5ncccc5c4F)ncnc3c2)cn1 (mixture of isomers) [Example 119, (R)-2-(4-(4-((5-fluoroquinolin-6-yl)amino)-5-((R)-1-(oxetan-3-yl)ethoxy)quinazolin-7-yl)-1H-pyrazol-1-yl)propan-1-ol and (S)-2-(4-(4-((5-fluoroquinolin-6-yl)amino)-5-((R)-1-(oxetan-3-yl)ethoxy)quinazolin-7-yl)-1H-pyrazol-1-yl)propan-1-ol] | ≤ 0.01 µM | < 0.01 µM | < 0.01 µM |  |  |
| C[C@H](Oc1cc(-c2cnn(C)c2)cc2ncnc(Nc3ccc4ncccc4c3F)c12)C(=O)N1CCOCC1 (single isomer, unassigned) [Example 139, (S)-2-((4-((5-fluoroquinolin-6-yl)amino)-7-(1-methyl-1H-pyrazol-4-yl)quinazolin-5-yl)oxy)-1-morpholinopropan-1-one or (R)-2-((4-((5-fluoroquinolin-6-yl)amino)-7-(1-methyl-1H-pyrazol-4-yl)quinazolin-5-yl)oxy)-1-morpholinopropan-1-one] | ≤ 0.01 µM |  |  | < 0.01 µM | < 0.01 µM |
| COc1cn(C)nc1-c1cc(O[C@H](C)CN(C)C)c2c(Nc3ccc4ncccc4c3F)ncnc2c1 [Example 45, (R)-5-((1-(dimethylamino)propan-2-yl)oxy)-N-(5-fluoroquinolin-6-yl)-7-(4-methoxy-1-methyl-1H-pyrazol-3-yl)quinazolin-4-amine] | ≤ 0.01 µM | < 0.01 µM | < 0.01 µM |  |  |
| C[C@H](Oc1cc(-c2cnn(C)c2)cc2ncnc(Nc3ccc4ncccc4c3F)c12)[C@@H]1CCCN1C (single isomer, unassigned) [Example 145] | > 0.0501 µM |  |  | 0.0101 to 0.05 µM | 0.0101 to 0.05 µM |
| C[C@H](CN(C)C)Oc1cc(-c2cnn(CC(F)F)c2)cc2ncnc(Nc3ccc4ncccc4c3F)c12 [Example 55, (R)-7-(1-(2,2-difluoroethyl)-1H-pyrazol-4-yl)-5-((1-(dimethylamino)propan-2-yl)oxy)-N-(5-fluoroquinolin-6-yl)quinazolin-4-amine] | ≤ 0.01 µM | < 0.01 µM | < 0.01 µM |  |  |
